Data on 26 compounds can be found in US20250066368A1, “DNA POLYMERASE THETA INHIBITOR AND USE THEREOF” (SHANGHAI APEIRON THERAPEUTICS COMPANY LIMITED, priority 2021, published 2025).

The structures appear in SMILES notation.

One may read the IC50 as the concentration that inhibits the measured activity by half. Low values mean inhibition by little substance, high ones a need for much substance.

Polθ polymerase, sequence (O75417 1792-2590): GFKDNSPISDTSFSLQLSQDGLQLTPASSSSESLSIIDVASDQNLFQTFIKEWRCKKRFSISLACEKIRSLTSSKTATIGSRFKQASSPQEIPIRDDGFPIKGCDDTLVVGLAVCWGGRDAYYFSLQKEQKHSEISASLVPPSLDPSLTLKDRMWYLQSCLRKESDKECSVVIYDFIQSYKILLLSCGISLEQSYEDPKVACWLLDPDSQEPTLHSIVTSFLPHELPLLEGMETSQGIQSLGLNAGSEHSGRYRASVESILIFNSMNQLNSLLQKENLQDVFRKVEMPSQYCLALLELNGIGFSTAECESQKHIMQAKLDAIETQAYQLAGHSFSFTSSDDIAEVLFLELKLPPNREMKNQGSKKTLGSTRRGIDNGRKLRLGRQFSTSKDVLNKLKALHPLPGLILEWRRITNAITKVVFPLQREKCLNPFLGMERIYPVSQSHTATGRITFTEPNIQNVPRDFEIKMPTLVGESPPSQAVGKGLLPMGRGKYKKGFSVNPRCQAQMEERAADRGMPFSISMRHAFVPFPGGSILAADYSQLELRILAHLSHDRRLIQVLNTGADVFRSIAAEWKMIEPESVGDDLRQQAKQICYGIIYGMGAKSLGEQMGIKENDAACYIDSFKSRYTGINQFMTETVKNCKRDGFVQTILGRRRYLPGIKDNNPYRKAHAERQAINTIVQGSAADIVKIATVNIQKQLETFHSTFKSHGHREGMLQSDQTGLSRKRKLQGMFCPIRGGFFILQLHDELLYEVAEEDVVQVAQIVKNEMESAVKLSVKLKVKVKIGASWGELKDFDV

The experiment has as its target Polθ polymerase (Homo sapiens (Human), UniProt O75417). In words: Polθ polymerase activity assay (PicoGreen method). Type of experiment: biochemical. The note with it: His-TEV-SUMO-tagged Polθ protein (amino acids 1792-2590), PicoGreen fluorescence, in vitro. As to the method:
The ability of compounds to inhibit Pol 0 polymerase activity was determined by the PicoGreen method in vitro. The His-TEV-SUMO-tagged Polθ protein (amino acids 1792-2590) expressed in E. coli was purified and stored in aliquots at -80° C. […] Test compounds were diluted in 100% DMSO and diluted three-fold into 10 concentration points in a dilution plate (Greiner-781280) using Bravo (Agilent) according to concentration requirements. The compounds diluted in DMSO were then diluted 20-fold in the assay buffer using Bravo. Further, 2 μl of diluted compounds were transferred to the assay plate (Corning-4512) using Bravo. The purified Pol 0 enzyme and primers ((primer strand: […] ID NO: 1):(template strand: […] A mixture containing 10 mM EDTA, 25 mM Tris pH 7.5, and a 1:200 diluted PicoGreen dye (Invitrogen-[…] the reaction. After 30 min of reaction at room temperature in the dark, fluorescence values were read on EnVision 2105 (PerkinElmer) using the Ex480 nm Em520 nm program, and the raw data was analyzed using XLfit to generate IC50 values. The results are shown in the table below.
`CN(C(=O)[C@@H]1CNC(=O)N1c1cc(C(F)(F)F)c2c(n1)CCC2)c1ccc(F)c(Cl)c1F` [Compound 1, (S)—N-(3-chloro-2,4-difluorophenyl)-N-methyl-2-oxo-3-(4-(trifluoromethyl)-6,7-dihydro-5H-cyclopenta[b]pyridin-2-yl)imidazolidine-4-carboxamide] registered a half-inhibitory concentration (IC50) of at most 50 nM.
With `CN(C(=O)[C@@H]1CNC(=O)N1c1cc(C(F)(F)F)c2c(n1)C(=O)CC2)c1ccc(F)c(Cl)c1F` [Compound 13, (S)—N-(3-chloro-2,4-difluorophenyl)-N-methyl-2-oxo-3-(7-oxo-4-(trifluoromethyl)-6,7-dihydro-5H-cyclopenta[b]pyridin-2-yl)imidazolidine-4-carboxamide], the IC50 is at most 50 nM.
Turning to `CN(C(=O)[C@@H]1CNC(=O)N1c1cc(C(F)(F)F)c2ccccc2n1)c1ccc(F)c(Cl)c1F` [Compound 17, (S)—N-(3-chloro-2,4-difluorophenyl)-N-methyl-2-oxo-3-(4-(trifluoromethyl)quinolin-2-yl)imidazolidine-4-carboxamide], the IC50 was in the range of 50 to 500 nM.
To `CN(C(=O)[C@@H]1CNC(=O)N1c1cc(C(F)(F)F)n2cccc2n1)c1ccc(F)c(Cl)c1F` [Compound 22, (S)—N-(3-chloro-2,4-difluorophenyl)-N-methyl-2-oxo-3-(4-(trifluoromethyl)pyrrolo[1,2-a]pyrimidin-2-yl)imidazolidine-4-carboxamide] belongs at most 50 nM; to `O=C1OC[C@@H](c2nc(F)cn2-c2ccc(F)c(Cl)c2)N1c1cc(C(F)(F)F)c2ccsc2n1` [Compound 30, (R)-4-(1-(3-chloro-4-fluorophenyl)-4-fluoro-1H-imidazol-2-yl)-3-(4-(trifluoromethyl)thieno[2,3-b]pyridin-6-yl)oxazolidin-2-one], at most 50 nM.
Compound `CN(C(=O)[C@@H]1CNC(=O)N1c1cc(C(F)(F)F)c2sccc2n1)c1ccc(F)c(Cl)c1F` [Compound 4, (S)—N-(3-chloro-2,4-difluorophenyl)-N-methyl-2-oxo-3-(7-(trifluoromethyl)thieno[3,2-b]pyridin-5-yl)imidazoline-4-carboxamide] had a half-maximal inhibitory concentration (IC50) of 50 to 500 nM.
The value for `CN(C(=O)[C@@H]1CNC(=O)N1c1cc(C(F)(F)F)c2cccn2n1)c1ccc(F)c(Cl)c1F` [Compound 27, (S)—N-(3-chloro-2,4-difluorophenyl)-N-methyl-2-oxo-3-(4-(trifluoromethyl)pyrrolo[1,2-b]pyridazin-2-yl)imidazolidine-4-carboxamide] was at most 50 nM; that for `CN(C(=O)[C@@H]1CNC(=O)N1c1cc(C(F)(F)F)c2c(n1)OCC2)c1ccc(F)c(Cl)c1F` [Compound 20, (S)—N-(3-chloro-2,4-difluorophenyl)-N-methyl-2-oxo-3-(4-(trifluoromethyl)-2,3-dihydrofuro[2,3-b]pyridin-6-yl)imidazolidine-4-carboxamide] was 50 to 500 nM.
With `CN(C(=O)[C@@H]1CNC(=O)N1c1cc(SC(F)(F)F)c2ncsc2n1)c1ccc(F)c(Cl)c1F` [Compound 44, (S)—N-(3-chloro-2,4-difluorophenyl)-N-methyl-2-oxo-3-(7-((trifluoromethyl)thio)thiazolo[5,4-b]pyridin-5-yl)imidazolidine-4-carboxamide], the IC50 lay within 50 to 500 nM.
Compound `CN(C(=O)[C@@H]1CNC(=O)N1c1cc(C(F)(F)F)c2c(n1)CCC2(F)F)c1ccc(F)c(Cl)c1F` [Compound 11, (S)—N-(3-chloro-2,4-difluorophenyl)-3-(5,5-difluoro-4-(trifluoromethyl)-6,7-dihydro-5H-cyclopentadienyl[b]pyridin-2-yl)-N-methyl-2-oxoimidazolidine-4-carboxamide] showed an IC50 of 50 to 500 nM.
In turn, `CN(C(=O)[C@@H]1CNC(=O)N1c1cc(C(F)(F)F)c2c(n1)CC[C@]2(C)O)c1ccc(F)c(Cl)c1F` [Compound 8a] yielded an IC50 of 500 to 5000 nM.
In turn, `CN(C(=O)[C@@H]1CNC(=O)N1c1nccn2ccnc12)c1ccc(F)c(Cl)c1F` [Compound 41, (S)—N-(3-chloro-2,4-difluorophenyl)-3-(imidazo[1,2-a]pyrazin-8-yl)-N-methyl-2-oxoimidazolidine-4-carboxamide] came in with an IC50 of over 5000 nM.
`CN(C(=O)[C@@H]1CNC(=O)N1c1ccc2c(n1)CCC2)c1ccc(F)c(Cl)c1F` [Compound 2, (S)—N-(3-chloro-2,4-difluorophenyl)-3-(6,7-dihydro-5H-cyclopenta[b]pyridin-2-yl)-N-methyl-2-oxoimidazolidine-4-carboxamide] displayed an IC50 of 500 to 5000 nM.
`CN(C(=O)[C@@H]1CNC(=O)N1c1cc(C(F)(F)F)c2cc[se]c2n1)c1ccc(F)c(Cl)c1F` [Compound 33]: the half-inhibitory concentration (IC50) is at most 50 nM.
Compound `CN(C(=O)[C@@H]1CNC(=O)N1c1cc(C(F)(F)F)c2ccsc2n1)c1ccc(F)c(Cl)c1F` [Compound 14, (S)—N-(3-chloro-2,4-difluorophenyl)-N-methyl-2-oxo-3-(4-(trifluoromethyl)thieno[2,3-b]pyridin-6-yl)imidazolidine-4-carboxamide] yielded an IC50 of at most 50 nM.
`CN(C(=O)[C@@H]1CNC(=O)N1c1cc(C2CC2)c2ncsc2n1)c1ccc(F)c(Cl)c1F` [Compound 31, [(4S)-3-(7-cyclopropyl (1,3-thiazolo[4,5-e]pyridin-5-yl))-2-oxoimidazolidin-4-yl]-N-(3-chloro-2,4-difluorophenyl)-N-methylformamide]: the IC50 is at most 50 nM.
Consider `CN(C(=O)[C@@H]1CNC(=O)N1c1cc(C(F)(F)F)c2c(n1)CC[C@H]2O)c1ccc(F)c(Cl)c1F` [Compound 6a], for which the half-maximal inhibitory concentration (IC50) lay within 500 to 5000 nM.
`CN(C(=O)[C@@H]1CNC(=O)N1c1cc(C(F)(F)F)c2ccn(C)c2n1)c1ccc(F)c(Cl)c1F` [Compound 18, (S)—N-(3-chloro-2,4-difluorophenyl)-N-methyl-3-(1-methyl-4-(trifluoromethyl)-1H-pyrrolo[2,3-b]pyridin-6-yl)-2-oxoimidazolidine-4-carboxamide]: the IC50 is 50 to 500 nM.
The compound `CN(C(=O)[C@@H]1CNC(=O)N1c1cc(C(F)(F)F)c2c(n1)CC=C2)c1ccc(F)c(Cl)c1F` (single isomer, unassigned) [Compound 9b] showed an IC50 of at most 50 nM.
The compound `CN(C(=O)[C@@H]1CNC(=O)N1c1cc(C(F)(F)F)c2c(n1)CC=C2)c1ccc(F)c(Cl)c1F` (single isomer, unassigned) [Compound 9a] came in with a half-inhibitory concentration (IC50) of at most 50 nM.
`CN(C(=O)[C@@H]1CNC(=O)N1c1cc(C(F)(F)F)c2ccoc2n1)c1ccc(F)c(Cl)c1F` [Compound 15, (S)—N-(3-chloro-2,4-difluorophenyl)-N-methyl-2-oxo-3-(4-(trifluoromethyl)furo[2,3-b]pyridin-6-yl)imidazolidine-4-carboxamide] displayed an IC50 of 50 to 500 nM.
To `CN(C(=O)[C@@H]1CNC(=O)N1c1cc(C(F)(F)F)c2c(n1)CCC2=O)c1ccc(F)c(Cl)c1F` [Compound 3, (S)—N-(3-chloro-2,4-difluorophenyl)-N-methyl-2-oxo-3-(5-oxo-4-(trifluoromethyl)-6,7-dihydro-5H-cyclopenta[b]pyridin-2-yl)imidazolidine-4-carboxamide] belongs over 5000 nM; to `CN(C(=O)[C@@H]1CNC(=O)N1c1cc(C(F)(F)F)c2c(n1)C(F)(F)CC2)c1ccc(F)c(Cl)c1F` [Compound 12, (S)—N-(3-chloro-2,4-difluorophenyl)-3-(7,7-difluoro-4-(trifluoromethyl)-6,7-dihydro-5H-cyclopenta[b]pyridin-2-yl)-N-methyl-2-oxoimidazolidine-4-carboxamide], at most 50 nM; to `CN(C(=O)[C@@H]1CNC(=O)N1c1cc(C(F)(F)F)c2c(ncn2C)n1)c1ccc(F)c(Cl)c1F` [Compound 10, (S)—N-(3-chloro-2,4-difluorophenyl)-N-methyl-3-(1-methyl-7-(trifluoromethyl)-1H-imidazo[4,5-b]pyridin-5-yl)-2-oxoimidazolidine-4-carboxamide], over 5000 nM.
The value for `CSc1cc(N2C(=O)NC[C@H]2C(=O)N(C)c2ccc(F)c(Cl)c2F)nc2scnc12` [Compound 43, (S)—N-(3-chloro-2,4-difluorophenyl)-N-methyl-3-(7-(methylthio)thiazolo[5,4-b]pyridin-5-yl)-2-oxoimidazolidine-4-carboxamide] was 50 to 500 nM; that for `CN(C(=O)[C@@H]1CNC(=O)N1c1cc(C(F)(F)F)c2c(n1)CCCC2)c1ccc(F)c(Cl)c1F` [Compound 5, (S)—N-(3-chloro-2,4-difluorophenyl)-N-methyl-2-oxo-3-(4-(trifluoromethyl)-5,6,7,8-tetrahydroquinolin-2-yl)imidazolidine-4-carboxamide] was 500 to 5000 nM.
